Results as given in ChEMBL document CHEMBL3872234, “Polyfluorinated salicylic acid derivatives as analogs of known drugs: Synthesis, molecular docking and biological evaluation” (Bioorg Med Chem, 2017).
Values joined by “and” are separate entries in the source; they are usually repeats but may differ in a detail not shown here. Identical values can stand only once.

Tested on: not listed separately
Experiment: Acute toxicity in CD-1 mouse assessed as viability at 50 mg/kg, ip measured up to 14 days
Assay type: organism-based
Details: in vivo, read-out: Activity

| Compound | survival at 336 h [%] |
| --- | --- |
| CC(=O)Oc1c(C(=O)O)cc(F)c(F)c1F | 100 |
| COc1c(C(=O)O)cc(F)c(F)c1F | 100 |
| CC(=O)Oc1c(F)c(F)c(F)c(F)c1C(=O)O | 100 |
| COC(=O)c1c(O)c(F)c(F)c(F)c1F | 100 |

Tested on: not listed separately
Experiment: Permeability of the compound at pH 5 after 2 hrs by PAMPA
Assay type: ADME
Details: read-out: Peff

| Compound | Papp at 2 h [×10⁻⁶ cm/s] |
| --- | --- |
| O=C(O)c1c(O)c(F)c(F)c(F)c1F [listing 1 of 2 here] | 18.6 |
| CC(=O)Oc1ccccc1C(=O)O [ASPIRIN] | 5.1 |
| O=C([O-])c1c(O)c(F)c(F)c(F)c1F.[Na+] | 22.1 |

Tested on: not listed separately
Experiment: Permeability of the compound at pH 6.2 after 2 hrs by PAMPA
Assay type: ADME
Details: read-out: Peff

| Compound | Papp at 2 h [×10⁻⁶ cm/s] |
| --- | --- |
| O=C(O)c1c(O)c(F)c(F)c(F)c1F [listing 1 of 2 here] | 0.5 |
| O=C([O-])c1c(O)c(F)c(F)c(F)c1F.[Na+] | 1.8 |

Tested on: not listed separately
Experiment: Permeability of the compound at pH 7.4 after 2 hrs by PAMPA
Assay type: ADME
Details: read-out: Peff

| Compound | Papp at 2 h [×10⁻⁶ cm/s] |
| --- | --- |
| O=C(O)c1c(O)c(F)c(F)c(F)c1F [listing 1 of 2 here] | 0.1 |
| CC(=O)Oc1ccccc1C(=O)O [ASPIRIN] | 4.7 |
| O=C([O-])c1c(O)c(F)c(F)c(F)c1F.[Na+] | 0.1 |

Target: T1, Prostaglandin G/H synthase 1 (Ovis aries) (UniProt P05979)
T1 sequence (whole entry): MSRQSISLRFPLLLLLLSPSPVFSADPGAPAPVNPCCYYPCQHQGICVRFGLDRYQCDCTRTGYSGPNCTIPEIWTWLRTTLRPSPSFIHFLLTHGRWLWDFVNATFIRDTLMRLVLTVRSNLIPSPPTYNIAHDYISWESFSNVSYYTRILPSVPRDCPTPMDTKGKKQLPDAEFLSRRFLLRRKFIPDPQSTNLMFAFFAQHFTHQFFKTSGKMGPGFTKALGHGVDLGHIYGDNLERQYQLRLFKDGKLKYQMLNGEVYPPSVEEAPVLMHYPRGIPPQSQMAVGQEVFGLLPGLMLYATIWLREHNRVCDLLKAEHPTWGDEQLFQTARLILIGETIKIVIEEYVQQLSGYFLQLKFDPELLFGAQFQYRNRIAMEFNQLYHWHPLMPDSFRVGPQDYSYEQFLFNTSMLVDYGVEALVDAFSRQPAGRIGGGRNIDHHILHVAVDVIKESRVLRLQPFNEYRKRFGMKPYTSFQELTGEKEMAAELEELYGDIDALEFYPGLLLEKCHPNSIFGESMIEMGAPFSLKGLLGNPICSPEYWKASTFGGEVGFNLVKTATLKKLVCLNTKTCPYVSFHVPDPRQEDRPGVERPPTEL
Experiment: Inhibition of ovine COX-1 assessed as reduction in PGG2 production using ADHP as substrate at 2 uM incubated for 5 mins followed by substrate addition measured after 2 mins by fluorescence assay
Details: not given

| Compound | inhibition |
| --- | --- |
| CC(=O)Oc1c(C(=O)O)cc(F)c(F)c1F | 35% |
| COc1c(C(=O)O)cc(F)c(F)c1F | < 10% |
| O=C(O)c1c(O)c(F)c(F)c(F)c1F [listing 2 of 2 here] | 34% and 59% |
| CC(=O)Oc1ccccc1C(=O)O [ASPIRIN] | 31% |
| COC(=O)c1c(O)c(F)c(F)c(F)c1F | 47% |
| COc1c(F)c(F)c(F)c(F)c1C(=O)O | 48% |

Target: T1, Prostaglandin G/H synthase 1 (Ovis aries)
Experiment: Inhibition of ovine COX-1 assessed as reduction in PGG2 production using ADHP as substrate at 200 uM incubated for 5 mins followed by substrate addition measured after 2 mins by fluorescence assay
Details: not given

| Compound | inhibition |
| --- | --- |
| CC(=O)Oc1c(C(=O)O)cc(F)c(F)c1F | 18% |
| O=C(O)c1c(O)c(F)c(F)c(F)c1F [listing 2 of 2 here] | 39% and 31% |
| CC(=O)Oc1ccccc1C(=O)O [ASPIRIN] | 36% |
| COC(=O)c1c(O)c(F)c(F)c(F)c1F | 48% |
| COc1c(F)c(F)c(F)c(F)c1C(=O)O | 64% |

Tested on: Rattus norvegicus
Experiment: Antiinflammatory activity in rat carrageenan-induced paw edema model assessed as inhibition of paw swelling at 25 mg/kg, ip administered 30 mins prior to carrageenan challenge measured after 3 hrs
Assay type: functional
Details: not given

| Compound | inhibition in vivo at 25 mg/kg [%] |
| --- | --- |
| CC(=O)Oc1c(F)cc(F)c(F)c1C(=O)O | 37.3 |
| CC(=O)Oc1c(F)c(F)c(F)c(F)c1C(=O)O | 42.9 |
| CC(=O)Oc1ccccc1C(=O)O [ASPIRIN] | 30.6 to 56.2 |
| O=C(O)c1c(O)c(F)cc(F)c1F | 47 |
| O=C(O)Cc1ccccc1Nc1c(Cl)cccc1Cl [DICLOFENAC] | 64.4 |
| COc1c(F)c(F)c(F)c(F)c1C(=O)O | 53.8 |

Tested on: Rattus norvegicus
Experiment: Antiinflammatory activity in rat carrageenan-induced paw edema model assessed as inhibition of paw swelling at 50 mg/kg, ip administered 30 mins prior to carrageenan challenge measured after 3 hrs
Assay type: functional
Details: not given

| Compound | inhibition in vivo at 50 mg/kg [%] |
| --- | --- |
| O=C(O)c1c(O)c(F)c(F)c(F)c1F [listing 1 of 2 here] | 64 |
| COc1c(C(=O)O)cc(F)c(F)c1F | 40 |
| CC(=O)Oc1c(F)c(F)c(F)c(F)c1C(=O)O | 65.6 |
| O=C(O)c1cc(F)c(F)c(F)c1O | 46.7 |
| COC(=O)c1cc(F)c(F)c(F)c1O | 40.3 |

Tested on: Rattus norvegicus
Experiment: Antiinflammatory activity in rat carrageenan-induced paw edema model assessed as inhibition of paw swelling at 25 mg/kg, ip administered 30 mins prior to carrageenan challenge measured after 5 hrs
Assay type: functional
Details: not given

| Compound | inhibition in vivo at 25 mg/kg [%] |
| --- | --- |
| O=C(O)c1c(O)c(F)c(F)c(F)c1F [listing 1 of 2 here] | 33.1 |
| CC(=O)Oc1c(F)cc(F)c(F)c1C(=O)O | 32.7 |
| CC(=O)Oc1c(C(=O)O)ccc(F)c1F | 35.3 |
| CC(=O)Oc1c(F)c(F)c(F)c(F)c1C(=O)O | 56.8 |
| CC(=O)Oc1ccccc1C(=O)O [ASPIRIN] | 29.4 to 44.9 |
| O=C(O)c1c(O)c(F)cc(F)c1F | 41.7 |
| O=C(O)Cc1ccccc1Nc1c(Cl)cccc1Cl [DICLOFENAC] | 54.4 |
| COc1c(F)c(F)c(F)c(F)c1C(=O)O | 46.9 |

Tested on: Rattus norvegicus
Experiment: Antiinflammatory activity in rat carrageenan-induced paw edema model assessed as inhibition of paw swelling at 50 mg/kg, ip administered 30 mins prior to carrageenan challenge measured after 5 hrs
Assay type: functional
Details: not given

| Compound | inhibition in vivo at 50 mg/kg [%] |
| --- | --- |
| O=C(O)c1c(O)c(F)c(F)c(F)c1F [listing 1 of 2 here] | 56.5 |
| COc1c(C(=O)O)cc(F)c(F)c1F | 30 |
| CC(=O)Oc1c(F)c(F)c(F)c(F)c1C(=O)O | 45.1 |
| O=C(O)c1cc(F)c(F)c(F)c1O | 46.9 |

Tested on: Rattus norvegicus
Experiment: Analgesic activity in rat assessed as latent period prolongation at 25 mg/kg, ip measured after 1 hr by hot plate test
Assay type: functional
Details: not given

| Compound | Activity |
| --- | --- |
| O=C(O)c1c(O)c(F)c(F)c(F)c1F [listing 1 of 2 here] | 143.2% |
| CC(=O)Oc1c(C(=O)O)cc(F)c(F)c1F | 71.2% |
| COc1c(C(=O)O)cc(F)c(F)c1F | 73.2% |
| CC(=O)Oc1c(F)cc(F)c(F)c1C(=O)O | 86.5% |
| CC(=O)Oc1c(C(=O)O)ccc(F)c1F | 98.8% |
| CC(=O)Oc1c(F)c(F)c(F)c(F)c1C(=O)O | 83.2% |
| O=C(O)c1cc(F)c(F)cc1O | 60.6% |
| CC(=O)Oc1ccccc1C(=O)O [ASPIRIN] | 57.9% |
| O=C(O)c1cc(F)c(F)c(F)c1O | 178.1% |
| O=C(O)c1c(O)c(F)cc(F)c1F | 60.3% |
| O=C(O)Cc1ccccc1Nc1c(Cl)cccc1Cl [DICLOFENAC] | 56 - 102.3% |
| COc1c(F)c(F)c(F)c(F)c1C(=O)O | 100.8% |
| O=C([O-])c1cc(F)c(F)c(F)c1O.[Na+] | 66.8% |

Tested on: not listed separately
Experiment: Acute toxicity in CD-1 mouse assessed as viability at 150 mg/kg, ip measured up to 14 days
Assay type: organism-based
Details: in vivo

| Compound | survival at 336 h [%] |
| --- | --- |
| CC(=O)Oc1ccccc1C(=O)O [ASPIRIN] | 100 |

Same assay, conditions: in vivo, read-out: Activity

| Compound | survival at 336 h [%] |
| --- | --- |
| CC(=O)Oc1c(C(=O)O)cc(F)c(F)c1F | 70 |
| COc1c(C(=O)O)cc(F)c(F)c1F | 80 |
| CC(=O)Oc1c(F)c(F)c(F)c(F)c1C(=O)O | 80 |
| O=C(O)c1cc(F)c(F)cc1O | 66 |
| CC(=O)Oc1cc(F)c(F)cc1C(=O)O | 100 |
| COC(=O)c1c(O)c(F)c(F)c(F)c1F | 90 |
| O=C(O)c1ccc(F)c(F)c1O | 66 |
| O=C(O)c1c(O)c(F)cc(F)c1F | 66 |
| COC(=O)c1cc(F)c(F)c(F)c1O | 100 |
| O=C([O-])c1cc(F)c(F)c(F)c1O.[Na+] | 66 |

Tested on: not listed separately
Experiment: Acute toxicity in CD-1 mouse assessed as viability at 300 mg/kg, ip measured up to 14 days
Assay type: organism-based
Details: in vivo

| Compound | survival at 336 h [%] |
| --- | --- |
| CC(=O)Oc1ccccc1C(=O)O [ASPIRIN] | 33 |

Same assay, conditions: in vivo, read-out: Activity

| Compound | survival at 336 h [%] |
| --- | --- |
| O=C(O)c1c(O)c(F)c(F)c(F)c1F [listing 1 of 2 here] | 0 |
| CC(=O)Oc1c(C(=O)O)cc(F)c(F)c1F | 0 |
| COc1c(C(=O)O)cc(F)c(F)c1F | 0 |
| CC(=O)Oc1c(C(=O)O)ccc(F)c1F | 33 |
| CC(=O)Oc1c(F)c(F)c(F)c(F)c1C(=O)O | 0 |
| O=C(O)c1cc(F)c(F)cc1O | 33 |
| COC(=O)c1c(O)c(F)c(F)c(F)c1F | 0 |
| O=C(O)c1cc(F)c(F)c(F)c1O | 0 |
| O=C(O)c1ccc(F)c(F)c1O | 33 |
| COC(=O)c1cc(F)c(F)c(F)c1O | 0 |

Tested on: not listed separately
Experiment: Acute toxicity in CD-1 mouse assessed as viability at 75 mg/kg, ip measured up to 14 days
Assay type: organism-based
Details: in vivo, read-out: Activity

| Compound | survival at 336 h [%] |
| --- | --- |
| O=C(O)c1c(O)c(F)c(F)c(F)c1F [listing 1 of 2 here] | 66 |

Tested on: not listed separately
Experiment: Acute toxicity in CD-1 mouse assessed as viability at 100 mg/kg, ip measured up to 14 days
Assay type: organism-based
Details: in vivo

| Compound | survival at 336 h [%] |
| --- | --- |
| CC(=O)Oc1ccccc1C(=O)O [ASPIRIN] | 100 |

Same assay, conditions: in vivo, read-out: Activity

| Compound | survival at 336 h [%] |
| --- | --- |
| O=C(O)c1cc(F)c(F)cc1O | 100 |
| O=C(O)c1ccc(F)c(F)c1O | 66 |
| COC(=O)c1cc(F)c(F)c(F)c1O | 100 |

Tested on: not listed separately
Experiment: Drug level in prisma HT buffer treated with 2-acetoxy-3,4,5,6-tetrafluorobenzoic acid at pH 5 to 7.4 by UV absorbance assay
Assay type: toxicity
Details: not given

| Compound | Drug metabolism |
| --- | --- |
| O=C(O)c1c(O)c(F)c(F)c(F)c1F [listing 1 of 2 here] | Metabolite_Notdetected |

Tested on: not listed separately
Experiment: Drug level in prisma HT buffer treated with 2-acetoxy-3,4,5-trifluorobenzoic acid at pH 5 to 7.4 by UV absorbance assay
Assay type: toxicity
Details: not given

| Compound | Drug metabolism |
| --- | --- |
| O=C(O)c1cc(F)c(F)c(F)c1O | Metabolite_Notdetected |
